Reference: ChEMBL document CHEMBL4311992, “Discovery of 3-(((9H-purin-6-yl)amino)methyl)-4,6-dimethylpyridin-2(1H)-one derivatives as novel tubulin polymerization inhibitors for treatment of cancer” (Eur J Med Chem, 2019)
Active and inactive are the calls of the source. The rule behind the calls is not given here.

Assays:
[1] = molecular target: Death-associated protein kinase 1 (Homo sapiens) (UniProt P53355); experiment: Inhibition of recombinant human DAPK1 (1 to 296 residues) assessed as residual activity at 10 uM using KKLNRTLSFAEPG as substrate measured after 40 mins in presence of [gamma33P]ATP by scintillation counting method
[2] = molecular target: Maternal embryonic leucine zipper kinase (Homo sapiens) (UniProt Q14680); experiment: Inhibition of recombinant human MELK (1 to 340 residues) assessed as residual activity at 10 uM using KKLNRTLSFAEPG as substrate measured after 40 mins in presence of [gamma33P]ATP by scintillation counting method
Chain of Maternal embryonic leucine zipper kinase (Homo sapiens) (Q14680 whole entry, looked up, the tested form may be a part): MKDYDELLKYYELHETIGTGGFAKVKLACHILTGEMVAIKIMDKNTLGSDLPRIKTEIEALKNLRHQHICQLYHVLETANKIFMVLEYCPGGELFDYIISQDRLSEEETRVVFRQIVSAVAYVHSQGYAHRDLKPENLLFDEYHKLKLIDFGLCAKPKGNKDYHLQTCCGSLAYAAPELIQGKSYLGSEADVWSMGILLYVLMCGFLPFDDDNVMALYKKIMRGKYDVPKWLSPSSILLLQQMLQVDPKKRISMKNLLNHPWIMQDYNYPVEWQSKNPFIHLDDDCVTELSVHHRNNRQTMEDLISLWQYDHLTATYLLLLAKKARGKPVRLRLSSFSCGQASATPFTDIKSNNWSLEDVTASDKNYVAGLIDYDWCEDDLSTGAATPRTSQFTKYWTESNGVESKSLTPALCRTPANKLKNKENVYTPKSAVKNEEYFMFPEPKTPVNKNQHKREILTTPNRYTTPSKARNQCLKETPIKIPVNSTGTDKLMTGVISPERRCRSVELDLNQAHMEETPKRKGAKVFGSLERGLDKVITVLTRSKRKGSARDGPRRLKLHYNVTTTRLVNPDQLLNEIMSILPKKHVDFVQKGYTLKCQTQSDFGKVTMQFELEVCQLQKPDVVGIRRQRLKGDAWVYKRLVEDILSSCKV

SW-620 [3] = experiment: Induction of apoptosis in human SW620 cells assessed as necrotic cells at 50 nM measured after 48 hrs by Annexin V-FITC/propidium iodide staining-based flow cytometry (reference value: 2.71%); type: functional
[4] = molecular target: Phosphatidylinositol 5-phosphate 4-kinase type-2 alpha (Homo sapiens) (UniProt P48426); experiment: Inhibition of recombinant full-length human PIP4K2alpha assessed as residual activity at 10 uM using phosphatidylinositol 5-phosphate as substrate measured after 40 mins by HTRF assay
[5] = molecular target: Myotonin-protein kinase (Homo sapiens) (UniProt Q09013); experiment: Inhibition of recombinant human DMPK (1 to 549 residues) assessed as residual activity at 10 uM using KKSRGDYMTMQIG as substrate measured after 40 mins in presence of [gamma33P]ATP by scintillation counting method
Chain of Myotonin-protein kinase (Homo sapiens) (Q09013 whole entry, the tested form may be a part): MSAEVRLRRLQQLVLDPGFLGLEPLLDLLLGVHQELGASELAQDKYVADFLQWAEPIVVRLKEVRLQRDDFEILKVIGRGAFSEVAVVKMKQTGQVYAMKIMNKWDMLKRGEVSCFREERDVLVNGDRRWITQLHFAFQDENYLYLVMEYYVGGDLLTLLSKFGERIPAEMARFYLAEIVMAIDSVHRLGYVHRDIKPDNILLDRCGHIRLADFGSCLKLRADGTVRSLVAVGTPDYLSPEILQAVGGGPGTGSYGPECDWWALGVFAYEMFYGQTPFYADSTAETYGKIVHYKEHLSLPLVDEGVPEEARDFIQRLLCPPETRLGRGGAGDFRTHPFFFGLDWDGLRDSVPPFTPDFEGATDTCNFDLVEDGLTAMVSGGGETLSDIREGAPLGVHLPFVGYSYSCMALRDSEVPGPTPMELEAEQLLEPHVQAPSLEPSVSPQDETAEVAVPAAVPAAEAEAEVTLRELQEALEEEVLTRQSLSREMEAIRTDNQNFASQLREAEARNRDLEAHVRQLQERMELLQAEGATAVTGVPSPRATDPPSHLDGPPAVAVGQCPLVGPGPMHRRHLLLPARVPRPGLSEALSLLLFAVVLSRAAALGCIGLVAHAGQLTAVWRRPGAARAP

[6] = molecular target: Dual specificity tyrosine-phosphorylation-regulated kinase 3 (Homo sapiens) (UniProt O43781); experiment: Inhibition of recombinant full-length human DYRK3 assessed as residual activity at 10 uM using RRRFRPASPLRGPPK as substrate measured after 40 mins in presence of [gamma33P]ATP by scintillation counting method
Chain of Dual specificity tyrosine-phosphorylation-regulated kinase 3 (Homo sapiens) (O43781 whole entry, the tested form may be a part): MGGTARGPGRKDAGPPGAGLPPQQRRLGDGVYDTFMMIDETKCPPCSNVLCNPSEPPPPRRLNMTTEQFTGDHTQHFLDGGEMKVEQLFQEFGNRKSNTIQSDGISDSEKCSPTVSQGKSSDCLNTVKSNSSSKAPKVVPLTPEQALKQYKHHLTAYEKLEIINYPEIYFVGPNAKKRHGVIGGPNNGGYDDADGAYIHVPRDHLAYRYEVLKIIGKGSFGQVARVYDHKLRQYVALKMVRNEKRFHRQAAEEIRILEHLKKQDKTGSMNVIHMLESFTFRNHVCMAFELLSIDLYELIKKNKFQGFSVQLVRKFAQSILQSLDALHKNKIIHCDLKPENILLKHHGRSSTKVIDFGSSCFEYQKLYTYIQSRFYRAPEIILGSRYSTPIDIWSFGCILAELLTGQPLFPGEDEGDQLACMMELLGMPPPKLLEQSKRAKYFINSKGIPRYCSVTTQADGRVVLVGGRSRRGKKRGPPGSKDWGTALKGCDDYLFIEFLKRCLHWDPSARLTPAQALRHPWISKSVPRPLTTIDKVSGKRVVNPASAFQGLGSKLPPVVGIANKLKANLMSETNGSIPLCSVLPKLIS

[7] = molecular target: Phosphatidylinositol 3-kinase C2 domain-containing subunit gamma (Homo sapiens) (UniProt O75747); experiment: Inhibition of recombinant human PI3KC2gamma (468 to 1203 residues) assessed as residual activity at 10 uM using phosphatidylinositol as substrate measured after 40 mins by HTRF assay
[8] = molecular target: MAP/microtubule affinity-regulating kinase 4 (Homo sapiens) (UniProt Q96L34); experiment: Inhibition of recombinant full-length human MARK4 assessed as residual activity at 10 uM using KKKVSRSGLYRSPSMPENLNRPR as substrate measured after 40 mins in presence of [gamma33P]ATP by scintillation counting method
SW-620 [9] = experiment: Induction of apoptosis in human SW620 cells assessed as viable cells at 100 nM measured after 48 hrs by Annexin V-FITC/propidium iodide staining-based flow cytometry (reference value: 94.7%); type: functional; conditions: SW-620, 48 h, read-out: Activity
[10] = tested on: Mast/stem cell growth factor receptor Kit (Homo sapiens), P10721 [V654A]; experiment: Inhibition of recombinant human c-Kit V654A mutant (544 to end residues) assessed as residual activity at 10 uM using GGMEDIYFEFMGGKKK as substrate measured after 40 mins in presence of [gamma33P]ATP by scintillation counting method
[11] = tested on: Serine/threonine-protein kinase D1 (Homo sapiens), Q15139 [UNDEFINED MUTATION]; experiment: Inhibition of recombinant full-length human PKCmu R135A mutant assessed as residual activity at 10 uM using KKLNRTLSVA as substrate measured after 40 mins in presence of [gamma33P]ATP by scintillation counting method
Chain of Serine/threonine-protein kinase D1 (Homo sapiens), Q15139 [UNDEFINED MUTATION] (Q15139 whole entry, looked up, stated change not applied): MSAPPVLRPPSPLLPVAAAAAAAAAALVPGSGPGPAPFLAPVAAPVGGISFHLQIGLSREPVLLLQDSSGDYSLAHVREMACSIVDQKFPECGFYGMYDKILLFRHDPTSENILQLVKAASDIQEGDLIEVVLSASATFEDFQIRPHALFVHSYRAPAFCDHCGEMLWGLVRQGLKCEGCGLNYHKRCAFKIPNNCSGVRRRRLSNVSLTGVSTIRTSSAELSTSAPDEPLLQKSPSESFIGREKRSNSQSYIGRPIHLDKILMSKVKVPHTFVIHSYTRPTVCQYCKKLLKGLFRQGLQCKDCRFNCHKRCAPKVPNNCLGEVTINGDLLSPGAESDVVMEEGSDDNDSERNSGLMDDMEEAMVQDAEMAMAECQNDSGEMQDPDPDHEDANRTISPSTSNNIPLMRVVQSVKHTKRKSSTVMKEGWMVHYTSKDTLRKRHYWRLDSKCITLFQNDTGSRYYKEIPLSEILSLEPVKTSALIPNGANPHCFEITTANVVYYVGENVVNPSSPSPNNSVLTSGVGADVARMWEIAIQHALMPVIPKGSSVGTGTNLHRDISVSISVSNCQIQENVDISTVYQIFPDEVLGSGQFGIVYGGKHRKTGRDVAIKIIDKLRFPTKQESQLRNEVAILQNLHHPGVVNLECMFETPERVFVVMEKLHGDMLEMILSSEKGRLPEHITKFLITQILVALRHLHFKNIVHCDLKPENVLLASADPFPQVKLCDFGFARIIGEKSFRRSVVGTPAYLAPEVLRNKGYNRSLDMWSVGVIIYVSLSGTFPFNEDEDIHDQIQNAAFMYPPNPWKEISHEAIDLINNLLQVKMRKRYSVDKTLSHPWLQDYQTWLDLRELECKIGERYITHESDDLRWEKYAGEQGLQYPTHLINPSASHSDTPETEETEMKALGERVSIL

[12] = tested on: Receptor tyrosine-protein kinase erbB-2 (Homo sapiens), P04626 [G778D]; experiment: Inhibition of recombinant human ErbB2 G778D mutant (676 to end residues) assessed as residual activity at 10 uM using poly (Glu, Tyr) 4:1 as substrate measured after 40 mins in presence of [gamma33P]ATP by scintillation counting method
[13] = molecular target: Mitogen-activated protein kinase 8 (Homo sapiens) (UniProt P45983); experiment: Inhibition of recombinant full-length human JNK1alpha1 assessed as residual activity at 10 uM using ATF2 as substrate measured after 40 mins in presence of [gamma33P]ATP by scintillation counting method
HCT-116 = experiment: Antitumor activity against human HCT116 cells xenografted in nude BALB/c mouse assessed as reduction in tumor weight at 80 mg/kg, po administered once daily for 4 weeks measured every 3 days during compound dosing; type: functional, organism-based
[14] = molecular target: Serine/threonine-protein kinase PAK 3 (Homo sapiens) (UniProt O75914); experiment: Inhibition of recombinant full-length human PAK3 assessed as residual activity at 10 uM using RRRLSFAEPG as substrate measured after 40 mins in presence of [gamma33P]ATP by scintillation counting method
Chain of Serine/threonine-protein kinase PAK 3 (Homo sapiens) (O75914 whole entry, looked up): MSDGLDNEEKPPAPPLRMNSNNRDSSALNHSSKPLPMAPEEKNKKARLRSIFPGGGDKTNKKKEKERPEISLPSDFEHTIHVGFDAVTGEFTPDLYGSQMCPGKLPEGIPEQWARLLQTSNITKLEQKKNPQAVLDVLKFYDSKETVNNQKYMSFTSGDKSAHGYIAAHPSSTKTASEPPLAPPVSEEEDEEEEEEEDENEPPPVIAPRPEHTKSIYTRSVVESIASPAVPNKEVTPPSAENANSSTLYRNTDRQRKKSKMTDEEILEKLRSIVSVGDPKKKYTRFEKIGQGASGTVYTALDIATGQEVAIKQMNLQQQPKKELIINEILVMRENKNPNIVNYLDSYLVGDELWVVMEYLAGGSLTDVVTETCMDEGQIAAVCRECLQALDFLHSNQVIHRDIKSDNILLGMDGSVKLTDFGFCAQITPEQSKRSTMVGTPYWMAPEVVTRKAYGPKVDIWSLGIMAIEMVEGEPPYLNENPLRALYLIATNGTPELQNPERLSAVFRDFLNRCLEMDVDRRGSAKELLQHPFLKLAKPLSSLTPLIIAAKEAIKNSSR

[15] = molecular target: Serine/threonine-protein kinase MAK (Homo sapiens) (UniProt P20794); experiment: Inhibition of recombinant full-length human MAK assessed as residual activity at 10 uM using RRRFRPASPLRGPPK as substrate measured after 120 mins in presence of [gamma33P]ATP by scintillation counting method
[16] = molecular target: Serine/threonine-protein kinase MRCK beta (Homo sapiens) (UniProt Q9Y5S2); experiment: Inhibition of recombinant human MRCKbeta (1 to 473 residues) assessed as residual activity at 10 uM using KKRNRTLTV as substrate measured after 40 mins in presence of [gamma33P]ATP by scintillation counting method
[17] = Toxicity in nude BALB/c mouse assessed as change in RBC level at 40 to 80 mg/kg, po once daily for 4 weeks measured post-last dose; type: organism-based; conditions: in vivo, 672 h
[18] = tested on: Mast/stem cell growth factor receptor Kit (Homo sapiens), P10721 [D816V]; experiment: Inhibition of recombinant human c-Kit D816V mutant (544 to end residues) assessed as residual activity at 10 uM using poly(Glu, Tyr) 4:1 as substrate measured after 40 mins in presence of [gamma33P]ATP by scintillation counting method
[19] = molecular target: Serine/threonine-protein kinase ULK3 (Homo sapiens) (UniProt Q6PHR2); experiment: Inhibition of recombinant full-length human ULK3 assessed as residual activity at 10 uM using casein as substrate measured after 40 mins in presence of [gamma33P]ATP by scintillation counting method
Chain of Serine/threonine-protein kinase ULK3 (Homo sapiens) (Q6PHR2 whole entry, canonical isoform): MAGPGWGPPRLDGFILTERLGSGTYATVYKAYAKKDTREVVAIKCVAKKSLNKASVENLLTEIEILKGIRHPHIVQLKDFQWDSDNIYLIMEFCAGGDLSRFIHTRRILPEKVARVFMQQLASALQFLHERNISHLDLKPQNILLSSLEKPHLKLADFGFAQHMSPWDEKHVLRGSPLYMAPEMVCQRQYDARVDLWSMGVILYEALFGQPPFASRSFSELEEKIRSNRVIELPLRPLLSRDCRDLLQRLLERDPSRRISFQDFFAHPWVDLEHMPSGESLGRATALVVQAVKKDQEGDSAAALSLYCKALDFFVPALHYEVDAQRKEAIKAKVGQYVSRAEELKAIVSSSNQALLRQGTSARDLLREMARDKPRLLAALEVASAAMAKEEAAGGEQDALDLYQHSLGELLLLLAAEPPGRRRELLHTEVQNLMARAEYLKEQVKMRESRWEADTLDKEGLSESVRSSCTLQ

[20] = molecular target: Phosphorylase b kinase gamma catalytic chain, skeletal muscle/heart isoform (Homo sapiens) (UniProt Q16816); experiment: Inhibition of recombinant full-length human PhKgamma1 assessed as residual activity at 10 uM using KKLNRTLSFAEPG as substrate measured after 120 mins in presence of [gamma33P]ATP by scintillation counting method
Chain of Phosphorylase b kinase gamma catalytic chain, skeletal muscle/heart isoform (Homo sapiens) (Q16816 whole entry, looked up, canonical isoform): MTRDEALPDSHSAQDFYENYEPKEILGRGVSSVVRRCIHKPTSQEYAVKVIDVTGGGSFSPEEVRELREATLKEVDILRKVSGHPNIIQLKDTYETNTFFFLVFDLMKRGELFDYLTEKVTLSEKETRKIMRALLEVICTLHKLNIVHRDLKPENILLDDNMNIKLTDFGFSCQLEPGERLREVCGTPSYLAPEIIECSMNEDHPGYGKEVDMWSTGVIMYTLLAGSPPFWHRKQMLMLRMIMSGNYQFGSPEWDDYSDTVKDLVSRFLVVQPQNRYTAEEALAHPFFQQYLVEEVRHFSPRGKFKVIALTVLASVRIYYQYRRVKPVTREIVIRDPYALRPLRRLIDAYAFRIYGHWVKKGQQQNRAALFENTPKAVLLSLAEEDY

[21] = molecular target: Serine/threonine-protein kinase Nek7 (Homo sapiens) (UniProt Q8TDX7); experiment: Inhibition of recombinant human NEK7 (2 to end residues) assessed as residual activity at 10 uM using FLAKSFGSPNRAYKK as substrate measured after 40 mins in presence of [gamma33P]ATP by scintillation counting method
Chain of Serine/threonine-protein kinase Nek7 (Homo sapiens) (Q8TDX7 whole entry, looked up): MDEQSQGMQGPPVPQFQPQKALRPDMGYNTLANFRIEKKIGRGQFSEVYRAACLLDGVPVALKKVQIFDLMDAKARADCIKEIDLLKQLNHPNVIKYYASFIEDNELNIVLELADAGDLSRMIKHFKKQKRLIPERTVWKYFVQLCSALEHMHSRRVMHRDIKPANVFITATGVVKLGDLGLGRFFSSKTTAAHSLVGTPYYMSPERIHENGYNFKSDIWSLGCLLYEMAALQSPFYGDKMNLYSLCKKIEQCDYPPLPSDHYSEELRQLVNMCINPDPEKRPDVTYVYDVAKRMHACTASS

[22] = molecular target: Serine/threonine-protein kinase VRK1 (Homo sapiens) (UniProt Q99986); experiment: Inhibition of human VRK1 assessed as residual activity at 10 uM by radiometric method
Chain of Serine/threonine-protein kinase VRK1 (Homo sapiens) (Q99986 whole entry): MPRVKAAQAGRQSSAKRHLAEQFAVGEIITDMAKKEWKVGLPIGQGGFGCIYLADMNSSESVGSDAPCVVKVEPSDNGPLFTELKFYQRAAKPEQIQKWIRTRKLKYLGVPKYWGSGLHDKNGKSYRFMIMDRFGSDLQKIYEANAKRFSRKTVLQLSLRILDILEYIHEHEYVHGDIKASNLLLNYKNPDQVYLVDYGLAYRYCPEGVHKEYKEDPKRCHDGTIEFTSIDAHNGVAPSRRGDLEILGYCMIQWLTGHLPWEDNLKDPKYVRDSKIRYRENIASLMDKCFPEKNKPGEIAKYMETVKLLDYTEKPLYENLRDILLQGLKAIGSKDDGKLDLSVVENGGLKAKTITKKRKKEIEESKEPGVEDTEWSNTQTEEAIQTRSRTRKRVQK

Compound `Cc1cc(C)c(CNc2nc(Cl)nc3c2ncn3C2CCCC2)c(=O)[nH]1` has an Activity [1] of 114%, an Activity [2] of 114% and an Activity (SW-620 [3]) of 6.3%. It also gave an Activity [4] of 108%, an Activity [5] of 104% and an Activity [6] of 122%. It also gave an Activity [7] of 100%, an Activity [8] of 123% and a viability at 0.1 µM (SW-620 [9]) of 66%. For the same compound, the Activity [10] was 90%, the Activity [11] was 103% and the Activity [12] was 109%. For the same compound, the Activity [13] was 96%, the Activity (HCT-116) was “Active” and the Activity [14] was 134%. The Activity [15] was 106%, the Activity [16] was 112% and the Activity [17] was “Non-Toxic”. The Activity [18] was 93%, the Activity [19] was 102% and the Activity [20] was 104%. The Activity [21] was 106% and the Activity [22] was 92.5%.
